# Measured values reported in article PMC7661967, “Magnetic Resonance Molecular Imaging of Extradomain B Fibronectin Improves Imaging of Pancreatic Cancer Tumor Xenografts” (Frontiers in Oncology, 2020).
# “Also recorded” adds a separate entry of the source. No end group written: not given here.
# Columns and labels:
# [1] = test system: BxPC3-GFP-Luc intrapancreatic tumor xenografts; assay: MRMI of BxPC3-GFP-Luc intrapancreatic tumor xenografts (3T); assay type: in vivo, human cells in female nu/nu mice
# Experimental: (§1) For flank xenograft models, 4 × 10^6 Capan-1 cells suspended in 100 μL of a 6 mg/mL Matrigel (Corning, Corning, NY) solution was injected subcutaneously into the flank of 8-week-old female nu/nu mice. The tumor bearing mice were imaged after tumor volumes exceeded 300 mm^3. For orthotopic intrapancreatic models, the pancreas of 4-week-old female nu/nu mice were surgically exposed via a ~10 mm incision in the left ventral abdomen and the application of gentle pressure to express the spleen and associated pancreatic tissue. 1 × 10^6 BxPC3-GFP-Luc or PANC-1-GFP-Luc cells suspended in 100 μL of a Matrigel solution (6 mg/mL) was injected into the pancreatic tissue using an insulin syringe with a 31G needle. Any leakage of cell suspension was lavaged with DPBS twice to prevent intraabdominal seeding PaCa cells. The peritoneal fascia was closed with absorbable stitches, and the dermis closed with stainless steel wound clips. Prior to imaging, growth of tumor was verified by bioluminescence imaging with intraperitoneal injection of d-luciferin on IVIS Spectrum system (Perkin Elmer, Waltham, MA).
# (§2) Mice bearing intrapancreatic tumors were anesthetized and a tail vein catheter was inserted. Image acquisition was performed on a MR Solutions 3T MRS 3000 scanner with a mouse radiofrequency coil. Axial images were obtained using a Fast Spin Echo (FSE) MRI sequence (305 ms TR, 11 ms TE, 90° FA, 4 cm × 4 cm FOV, 1 mm slice thickness, 10 slices, echo train length = 4, echo spacing = 11 ms, 4 averages, 256 × 256 matrix, 0.0156 × […] cm/pixel resolution) with respiratory gating. Images were acquired before contrast and at different time points after contrast injection at a dose of 0.1 mmol/kg (100 μL). For competitive binding experiments, a 5:1 molar ratio of free ZD2 peptide to MT218 was injected in mice bearing intrapancreatic BxPC3 tumor xenografts (n = 3) at a dose of 0.1 mmol MT218/kg (100 μL). Images obtained on the MR Solutions 3T scanner were normalized using the Surscalereader.exe (MR Solutions, Guildford, UK) program supplied.
# (§3) Image files were exported and analyzed in Horus software. ROIs were drawn in the tumor, liver, kidney, and muscle. Muscle ROIs were taken from the muscle, with other structures (liver, kidney, tumor) identified after comparison with published images and comparison with anatomical landmarks or bioluminescent imaging. Pancreatic lesions were localized using the liver, kidney, and spleen as anatomical landmarks. […] Size of ROIs drawn for image analysis are summarized in Supplementary Table 1. The contrast-to-noise ratio of the tumor (CNR) was calculated using the following equation, where σnoise is the standard deviation of intensities from an ROI drawn outside of the mouse body:
# (§4) CNR=Mean IntensityTumor-Mean IntensityMuscle/σnoise.
# (§5) Image subtraction was performed on images adjusted to the same window and level in FIJI open-source software.
# (§6) Image contrast was reported as fold enhancement of contrast to noise ratio of post-contrast images over pre-contrast images using Fold Enhancement = CNRpost/CNRpre. Statistical analysis of CNR was performed in Minitab Express (Minitab Inc., State College, PA). One-way ANOVA with Fisher Individual Tests for Differences of Means post-hoc testing was performed to determine statistical significance between >2 means (p < 0.05). Student's T test was used to determine statistical significance between 2 means (p < 0.05).
# EDB-FN [2] = conditions: cited from earlier work
# Experimental: ZD2 targeted MRI contrast agents have been developed and tested for MRMI of EDB-FN in aggressive breast cancer and prostate cancer models ([15], [16], [20]). The targeted contrast agent ZD2-N3-Gd(HP-DO3A) (MT218) was developed by conjugating ZD2 peptide to a clinical macrocyclic contrast agent Gd(HP-DO3A) ([16], [20]). […] MT218 is a small molecular conjugate of ZD2 peptide to a macrocyclic clinical MRI contrast agent Gd(HP-DO3A). The binding affinity of MT218 to EDB-FN was measured to be 3.2 ± 0.2 μM, which is similar to that of a previously targeted contrast agent ZD2-Gd(HP-DO3A) ([23]). The T1 and T2 relaxivities of MT218 were measured to be 6.07 ± 1.13 s^−1 mM^−1 and 8.20 ± 0.18 s^−1 mM^−1, respectively, at 3 T. T1 and T2 relaxivities of Gd(HP-DO3A) were measured to be 3.20 ± 0.96 s^−1 mM^−1 and 5. ...
# EDB-FN in PaCa = conditions: PET; cited from earlier work
# Text: Molecular imaging of EDB-FN in cancer has been previously investigated with antibodies labeled with radioisotopes for PET imaging. Anti-EDN-FN antibody BC-1 was labeled with ^125I and tested in mice bearing U87 brain tumor and SKMel28 melanoma xenografts ([29]). […] Nanobodies with a smaller size were recently developed for molecular imaging of E ...
# [3] = T1 and T2 relaxivity measurement at 3T; assay type: physicochemical; conditions: 0-2 mM MT218 in DPBS buffer
# Experimental: The T1 and T2 values of MT218 and Gd(HP-DO3A) solutions were determined using a 3T MRS 3000 scanner (MR Solutions, Guildford, UK). Solutions of MT218 were prepared at concentrations of 0, 0.25, 0.5, 1, and 2 mM in DPBS buffer (Gibco, Gaithersburg, MD). T1 values were measured using an inversion recovery-fast low angle shot (IR-FLASH) sequence (τ = 10 ms, TE = 4 ms, FA = 8°, echoes/frames = 128, FOV = 40 mm × 40 mm, slice thickness = 2 mm, number of averages = 1, time delay = 4,000 ms, sample period = 200, matrix = 256 × 128). T2 values were obtained using a multi-echo multi-slice (MEMS) sequence (TE = 15 ms, […], echoes = 10, FOV: 40 mm × 40 mm, slice thickness = 1 mm, number of averages = 1, matrix = 256 × 192). The r1 and r2 relaxivities were calculated from the slopes of 1/T1 and 1/T2 vs. Gd concentration plots, respectively.
# [4] = test system: Capan-1 flank tumor xenografts; assay: MRMI of Capan-1 flank tumor xenografts (7T); assay type: in vivo, human cells in female nu/nu mice; conditions: 0.1 mmol/kg
# Experimental: as §1
# Flank tumor-bearing mice were anesthetized and a tail vein catheter inserted. MR image acquisition was performed on a 7T Biospin (Bruker, Billerica, MA) preclinical small animal scanner with a volume radiofrequency coil. Axial images were obtained using a multi-spin multi-echo (MSME) MRI sequence (500 ms TR, 8.1 ms TE, 90° FA, 4.50 cm × 4.50 cm FOV, 1.50 mm slice thickness, 16 slices, 2 averages, 200 × 200 matrix, 0.0225 × 0.0225 cm/pixel resolution). Contrast agents were injected at a dose of 0.1 mmol/kg (100 μL) via the tail vein catheter, followed by a saline flush. Images of the tumors were acquired before contrast and at various time points after contrast administration. Gd(HP-DO3A) was used as a control.
# as §3, §4, §5, §6
# [5] = test system: PANC-1-GFP-Luc intrapancreatic tumor xenografts; assay: MRMI of PANC-1-GFP-Luc intrapancreatic tumor xenografts (3T); assay type: in vivo, human cells in female nu/nu mice; conditions: 0.1 mmol/kg, 10 min post-injection, n = 6
# Experimental: as §1, §2, §3, §4, §5, §6
# EDB-FN [6] = assay: ZD2-Cy5.5 staining of human pancreatic tissue; assay type: binding; conditions: 500 nM, 1 h, 37°C, confocal
# Experimental: Tissue sections from PaCa patients (Case Comprehensive Cancer Center, Cleveland, OH) were deparaffinized with xylene, ethanol, and washed with water. Blocking was performed with 10% goat serum (Invitrogen, Carlsbad, CA) in PBS with 0.1% Tween 20 (PBS-T) for 30 min and incubated with 500 nM ZD2-Cy5.5 in PBS-T for 1 h at 37°C. Following three washes with PBS-T, the sections were mounted using Fluoroshield mounting medium (Abcam, Cambridge, UK). Images were acquired on a FV1000 (Olympus, Waltham, MA) confocal microscope using pre-programmed emission and excitation filters for Cy5.5 (excitation: 635 nm; emission: 693 nm) and DAPI (excitation: 405 nm; emission: 461 nm), using a 10 × objective lens. All tissue samples were imaged at the same laser power and sensor gain. Images were generated from single-channel grayscale images using FIJI software.
# EDB-FN [7] = assay: Fluorescence staining of frozen mouse tumor xenograft and normal tissue sections; assay type: binding, human PaCa xenografts in nu/nu mice; conditions: for staining: ZD2-Cy5.5 500 nM, room temperature 2.5 h, BC-1 1:400, 4°C overnight
# Experimental: For assessment of binding specificity of ZD2 peptide, flash frozen samples of tumor and normal tissues were collected from the euthanized tumor bearing mice and embedded in optimal cutting temperature media. The embedded samples were then immersed in liquid nitrogen for 5 min and transferred to −80°C for storage before cryosectioning. Tissue sections were blocked for 1 h in PBS containing 0.05% Tween-20 and 10% normal goat serum (Gibco, Gaithersburg, MD) and then stained with BC-1 primary monoclonal antibody (1:400) or ZD2-Cy5.5 (500 nM) at 4°C overnight or room temperature incubation for 2.5 h, respectively, and then washed with PBS-T buffer. Secondary Alexa Fluor 594 anti-rabbit was incubated with the BC-1 treated sections for 1 h at room temperature (1:1,000). For the blocking experiment, the tissue sections were first incubated with an excess of BC1 antibody at 4°C overnight, then washed three times with PBS-T. The sections were then incubated with ZD2-Cy5.5 at room temperature incubation for 2.5 h. The stained sections were washed with PBS-T buffer and images were acquired on an Olympus FV1000 (Waltham, MA) confocal microscope using pre-programmed emission and excitation filters for Cy5.5 (excitation: 635 nm; emission: 693 nm) and DAPI (excitation: 405 nm; emission: 461 nm), using a 10 × objective lens.
# [8] = molecular target: extradomain B fibronectin in human PaCa tumor xenografts in mice (human (endogenous in BxPC3, Capan-1 and PANC-1 xenografts))
# [9] = molecular target: extradomain B fibronectin in human PaCa tumor xenografts in mice (human (endogenous in BxPC3, Capan-1 and PANC-1 xenografts)); remark: listed apart in the source
# EDB fragment of FN = assay: MST; NT-647-labelled EDB fragment at a fixed concentration, MT218 varied; 50 mM PBS w/0.05% Tween-20; 25°C; Monolith NT.115
# [10] = 0.1 mmol/kg, 10 min post-injection, n = 3
molecule,measurement,setting,value
TVRTSAD [ZD2],effect of free ZD2 peptide on binding of MT218,"[1]; 5:1 molar ratio free ZD2 peptide to MT218, co-injection, n = 3",blocked the binding of the MT218 to the tumors; also recorded: inhibited the binding of MT218
same,binding to EDB-FN (specificity),EDB-FN [2],binds with high specificity to EDB-FN
ZD2-((68)Ga-NOTA) [ZD2 peptide labeled with ^68Ga],molecular imaging of EDB-FN in PaCa,EDB-FN in PaCa,sensitive and specific molecular imaging of EDB-FN in PaCa
"CC(O)CN1CCN(CC(=O)[O-])CCN(CC(=O)[O-])CCN(CC(=O)[O-])CC1.[Gd+3] (stereo not shown) [Gd(HP-DO3A), reference compound]",T1 relaxivity (r1),[3]; IR-FLASH,3.20 ± 0.96 s⁻¹ mM⁻¹
same,T2 relaxivity (r2),[3]; MEMS,5.12 ± 0.18 s⁻¹ mM⁻¹
same,contrast enhancement in tumor core,[4]; after injection,did not exhibit significant tumor core enhancement
same,"enhancement in tumor periphery, subtraction images",[4]; early time points (5–15 min post-contrast),modest peripheral contrast enhancement
same,intratumoral CNR increase (post/pre),"[4]; for the duration of the experiment, n = 5",1.77 fold
same,"contrast enhancement throughout tumors, subtraction images","[4]; later time points (25–35 min) for MT218, all time points for Gd(HP-DO3A)",little to no intratumoral contrast
same,intratumoral CNR increase compared with MT218,[4]; p < 0.01,significantly less than MT218
same,tumor CNR increase compared with MT218,"[1]; 0.1 mmol/kg, 10 min, p < 0.01",significantly less than that with MT218
same,tumor CNR increase (post/pre),"[1]; 0.1 mmol/kg, 10 min post-injection (maximum for MT218), n = 3",approximately 2.5 fold
same,tumor contrast enhancement,[1]; [10],modest contrast enhancement
same,"tumor enhancement, subtraction images",[1]; [10],less intratumoral signal enhancement
same,tumor contrast enhancement,"[1]; 0.1 mmol/kg, 20 min post-injection, n = 3",reduced to background level
same,intratumoral CNR increase (post/pre),[5],2.35 fold
same,tumor contrast enhancement,[5],did not produce significant tumor contrast enhancement
same,"tumor signal enhancement, subtraction images",[5],little change
"ZD2-Cy5.5: peptide-fluorophore conjugate (TVRTSAD; also: Cy5.5 conjugate, end of attachment not given here)",ZD2-Cy5.5 binding / EDB-FN expression,EDB-FN [6]; human PaCa tissue,high EDB-FN expression and high
same,ZD2-Cy5.5 binding / EDB-FN expression,EDB-FN [6]; normal pancreatic tissue,little expression and low
same,ZD2-Cy5.5 binding / EDB-FN expression,EDB-FN [6]; precancerous PanIN tissue,moderate expression
same,staining,"EDB-FN [7]; BxPC3, Capan-1 and PANC-1 tumor tissues",high in all three tumor tissues
same,ZD2-Cy5.5 binding after blocking,"EDB-FN [7]; flash frozen tumor tissues pre-incubated with excess BC-1 antibody, 4°C overnight, then ZD2-Cy5.5",No fluorescent signal; also recorded: blocked
same,staining,EDB-FN [7]; normal pancreatic and muscle tissues,undetectable; also recorded: No staining
"TVRTSAD (also: conjugated to Gd(HP-DO3A) via N3, end of attachment not given here) [ZD2-N3-Gd(HP-DO3A)]","tumor CNR fold increase, T1-weighted MRI, Capan-1 flank xenografts, MT218 0.1 mmol/kg, time course 5-35 min post-injection (maximum at 15 min)",[8],4.8 fold
same,"tumor CNR fold increase, T1-weighted MRI, BxPC3-GFP-Luc intrapancreatic model, MT218 0.1 mmol/kg without the free ZD2 peptide",[9],4.5 fold
same,"tumor contrast-to-noise ratio (CNR) fold increase, T1-weighted MRI, BxPC3-GFP-Luc intrapancreatic model, MT218 0.1 mmol/kg co-injected with a 5-fold excess of free ZD2 peptide",[9],2.5 fold
same,Kd,EDB fragment of FN,3.2 µM
